Measured values taken from US20260000781A1, “FC CONJUGATES INCLUDING AN INHIBITOR OF CD73 AND USES THEREOF” (Cidara Therapeutics, Inc., priority 2022, published 2026).
Where two headings read alike, the source gives them in different places.

Columns and labels:
[1] = target: T1, CD73 on human PBMCs (Homo sapiens, UniProt P21589); experiment: CD73 enzyme inhibition assay with human PBMCs (PiColorLock); format: cell-based; conditions: AMP 100 μM
T1 construct: 72400 (T cells); host or cells: human PBMCs / human T cells
T1 sequence (P21589 27-549): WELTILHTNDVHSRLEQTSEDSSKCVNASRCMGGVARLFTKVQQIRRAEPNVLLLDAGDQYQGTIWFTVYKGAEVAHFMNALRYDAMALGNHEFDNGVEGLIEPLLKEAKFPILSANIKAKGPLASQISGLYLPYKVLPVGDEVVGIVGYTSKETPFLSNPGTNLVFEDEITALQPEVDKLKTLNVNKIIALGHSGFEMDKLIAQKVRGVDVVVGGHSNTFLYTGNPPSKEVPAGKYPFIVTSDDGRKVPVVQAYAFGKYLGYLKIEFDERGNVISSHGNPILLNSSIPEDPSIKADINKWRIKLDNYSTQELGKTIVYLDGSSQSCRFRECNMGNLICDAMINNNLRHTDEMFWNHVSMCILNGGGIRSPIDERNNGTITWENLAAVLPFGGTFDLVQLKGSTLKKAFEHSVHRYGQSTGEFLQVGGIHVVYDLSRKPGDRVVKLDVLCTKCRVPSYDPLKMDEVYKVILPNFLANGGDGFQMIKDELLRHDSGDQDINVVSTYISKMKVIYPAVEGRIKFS
Description: The cell-based CD73 enzyme inhibition assay was performed in a 96-well plate format using the PiColorLock phosphate assay kit in accordance with the manufacturer's instructions (Abcam cat no. 270004). 4T1 mouse cells are a model for stage IV human breast cancer (ATCC CRL-2539) and human peripheral blood mononuclear cells (PBMCs; StemCell Technologies cat no. 70025) from three different donors were assayed. 4T1 cells were washed three times with a phosphate-free CD73 buffer (Lawson et al., 2020), detached from tissue-culture flasks using a cell scraper, and seeded at 5×10^3 cells/well into 96-well tissue culture-treated plates. Human PBMCs were washed three times with phosphate-free CD73 buffer at 125×g for 10 min at room temperature and seeded at 1×10^5 cells/well into 96-well tissue culture-treated plates. Test articles were tested from 0.001 nM to 1,000 nM (4T1 cells) or 0.0001 nM to 100 nM (PBMCs) and incubated with cells for 30 min at 37° C., 5% CO2. AMP (100 μM final concentration) was added to cells and test articles, and the reaction incubated for 3 h and 24 h at 37° C., 5% CO2. The conversion of AMP to adenosine and phosphate in cell-free supernatant was quantified using the PiColorLock kit. Colorimetric detection reagent was added and the phosphate production was measured by reading the absorbance at 635 nm with the EnSpire multimode plate reader (PerkinElmer). Cells without test article (positive control) were included on each plate. Control wells without test article and cells (background) were subtracted from all wells. Percent CD73 inhibition versus inhibitor concentration was plotted using GraphPad Prism Version 8 and IC50's calculated using nonlinear regression analysis (Sigmoidal, 4 PL).
The cell-based CD73 enzyme inhibition assay was performed in a 96-well plate format using the Phosphate Assay Kit—PiColorLock™ in accordance with the manufacturer's instructions (cat no. 270004, Abcam). AMP is enzymatically converted by CD73 to adenosine and phosphate. Therefore, adenosine concentrations can be inferred from phosphate concentrations in 1:1 ratio. Both EMT6 mouse mammary carcinoma cells (ATCC CRL-2755) and human peripheral blood mononuclear cells (PBMC; Stemcell Technologies cat no. 70025, lot no. 2202401007) were assayed. The EMT6 cells were washed three times with a phosphate free CD73 buffer, detached from flasks using a cell scraper, and seeded at 3×10^3 cells/well in 100 μL into 96-well tissue culture-treated plates. Human PBMC cells were washed three times by suspending in phosphate free CD73 buffer and pelleting in a centrifuge at 125×g for 10 min at room temperature and seeded at 5×10^5 cells/well in 100 μL into 96-well tissue culture-treated plates. […] AMP was added at 100 μM and cells, test articles, and AMP were incubated together for 3 h and 24 h at 37° C., 5% CO2. The CD73 activity in the supernatant was quantified using the PiColorLock Phosphate assay kit. Colorimetric detection reagent was added and the free phosphate from the CD73 reaction was measured by reading the absorbance at 635 nm using the EnSpire multimode plate reader (PerkinElmer). Wells without test inhibitor (CD73 positive control) were included on each plate. Wells without test inhibitor and cells (background) were subtracted from all wells. The percent CD73 inhibition versus inhibitor concentration was plotted using GraphPad Prism Version 8 and IC50's calculated using nonlinear regression analysis (Sigmoidal, 4 PL).

[2] = target: T2, CD73 expressed on the MDA-MB-231 cell surface (Homo sapiens, UniProt P21589); experiment: Cell-based CD73 enzyme inhibition assay on MDA-MB-231 cells; conditions: AMP 400 μM, 3 h (FIG. 3)
T2 construct: host or cells: MDA-MB-231
T2 sequence (P21589 27-549): T1 sequence (P21589 27-549)
Description: The cell-based CD73 enzyme inhibition assay was performed essentially as described above for the cell-free assay, with the following modifications.
(§1) The cell-based CD73 enzyme inhibition assay was performed essentially as described above for the cell-free assay, with the following modifications. MDA-MB-231 human breast adenocarcinoma cells (ATCC CRM-HTB-26) were seeded at 2×10^4 cells/well/100 μL into 96-well tissue culture-treated plates (Corning Costar cat no. 3596) and incubated overnight at 37° C., 5% CO2. […] The 96-well plate was then centrifuged at 125×g for 5 min at room temperature and ATP (25 μL/well, 100 μM final) was combined with supernatant (25 μL/well) in a white opaque 96-well plate (Corning Costar cat no. 3912).
as §1, with “3912). […] Percent CD73 inhibition (y-axis) versus log10 inhibitor concentration (x-axis) were plotted using GraphPad Prism Version 8 and IC50's calculated using nonlinear regression analysis (Sigmoidal, 4 PL).” for “3912).”

[3] = target: T3, CD73 (Homo sapiens, UniProt P21589); experiment: Cell-free CD73 inhibition IC50 (nM)
T3 sequence (P21589 27-549): T1 sequence (P21589 27-549)
Source text: Table printed on a drawing sheet, FIG. 24
Head of the field: Cell-free CD73 inhibition IC50 (nM)
Where the first naming reader finds the target: head: Cell-free CD73 inhibition IC50 (nM)

[4] = read-out: 3 h median IC50 [nM] (range), three unique PBMC donors, 3 h
[5] = three unique PBMC donors, 24 h, read-out: 24 h median IC50 [nM] (range)

IC50 [1, 4] [nM]	IC50 [1, 5] [nM]	IC50 [2] [nM]	IC50 [3] [nM]	IC50 ([1]; human PBMCs, 24 h (Table 18), read-out: 24 h IC50) [nM]	IC50 ([1]; read-out: 3 h IC50, human PBMCs, 3 h (Table 18)) [nM]	Compound
1.45	2.36	4.87	16.1	–	–	O=P(O)(O)COC[C@H]1O[C@@H](n2ncc3c(N4CC5(CCc6ccccc65)C4)nc(Cl)nc32)[C@H](O)[C@@H]1O [SHR170008]
0.07	0.15	0.31	2.25	0.28	0.011	COC[C@](CO)(OC[C@H]1O[C@@H](n2ncc3c(NC4CCCC4)nc(Cl)nc32)[C@H](O)[C@@H]1O)P(=O)(O)O [OP-5244]
